Each block holds one compound with its values, some of them ahead of it.
Columns and labels:
SRSF protein kinase 1 = SRSF protein kinase 1 (Homo sapiens, UniProt Q96SB4); assay: Selectivity interaction (KinomeScan (DiscoverX)) EUB0001079a SRPK1; conditions: at 1 µM
[1] = target: T1, Receptor-interacting serine/threonine-protein kinase 4 (Homo sapiens) (UniProt P57078); assay: Selectivity interaction (KinomeScan (DiscoverX)) EUB0000618a RIPK4; conditions: at 10 µM
T1 sequence (whole entry): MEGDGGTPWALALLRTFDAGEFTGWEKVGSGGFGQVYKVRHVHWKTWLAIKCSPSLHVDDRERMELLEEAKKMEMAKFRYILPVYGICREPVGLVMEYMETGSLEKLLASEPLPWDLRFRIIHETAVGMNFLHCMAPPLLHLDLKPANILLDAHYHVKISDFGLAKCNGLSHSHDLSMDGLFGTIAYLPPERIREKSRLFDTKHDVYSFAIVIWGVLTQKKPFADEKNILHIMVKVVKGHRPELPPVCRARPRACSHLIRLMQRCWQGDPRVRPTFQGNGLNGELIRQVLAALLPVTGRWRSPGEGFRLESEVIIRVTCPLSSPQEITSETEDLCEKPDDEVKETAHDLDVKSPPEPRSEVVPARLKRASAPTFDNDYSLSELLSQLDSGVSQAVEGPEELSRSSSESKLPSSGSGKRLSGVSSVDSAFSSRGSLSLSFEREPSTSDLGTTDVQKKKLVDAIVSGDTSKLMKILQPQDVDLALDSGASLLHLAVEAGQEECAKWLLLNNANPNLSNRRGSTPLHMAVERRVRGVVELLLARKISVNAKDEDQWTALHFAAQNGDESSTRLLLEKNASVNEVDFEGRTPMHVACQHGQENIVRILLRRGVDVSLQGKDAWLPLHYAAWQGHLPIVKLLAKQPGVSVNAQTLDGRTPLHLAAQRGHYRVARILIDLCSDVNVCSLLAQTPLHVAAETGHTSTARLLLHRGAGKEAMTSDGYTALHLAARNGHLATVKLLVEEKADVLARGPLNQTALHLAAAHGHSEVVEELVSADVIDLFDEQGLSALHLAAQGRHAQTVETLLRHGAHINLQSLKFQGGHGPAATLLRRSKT

[2] = target: Tyrosine-protein kinase ABL2 (Homo sapiens, UniProt P42684); assay: Selectivity interaction (KinomeScan (DiscoverX)) EUB0000607a ABL2; conditions: at 10 µM
[3] = target: Dual specificity protein kinase CLK2 (Homo sapiens, UniProt P49760); assay: Selectivity interaction (SelectScreen profiling (Invitrogen)) EUB0000607a CLK2; conditions: at 2 µM
[4] = target: T2, Ephrin type-B receptor 6 (Homo sapiens) (UniProt O15197); assay: Selectivity interaction (KinomeScan (DiscoverX)) EUB0000607a EPHB6; conditions: at 10 µM
T2 sequence (whole entry): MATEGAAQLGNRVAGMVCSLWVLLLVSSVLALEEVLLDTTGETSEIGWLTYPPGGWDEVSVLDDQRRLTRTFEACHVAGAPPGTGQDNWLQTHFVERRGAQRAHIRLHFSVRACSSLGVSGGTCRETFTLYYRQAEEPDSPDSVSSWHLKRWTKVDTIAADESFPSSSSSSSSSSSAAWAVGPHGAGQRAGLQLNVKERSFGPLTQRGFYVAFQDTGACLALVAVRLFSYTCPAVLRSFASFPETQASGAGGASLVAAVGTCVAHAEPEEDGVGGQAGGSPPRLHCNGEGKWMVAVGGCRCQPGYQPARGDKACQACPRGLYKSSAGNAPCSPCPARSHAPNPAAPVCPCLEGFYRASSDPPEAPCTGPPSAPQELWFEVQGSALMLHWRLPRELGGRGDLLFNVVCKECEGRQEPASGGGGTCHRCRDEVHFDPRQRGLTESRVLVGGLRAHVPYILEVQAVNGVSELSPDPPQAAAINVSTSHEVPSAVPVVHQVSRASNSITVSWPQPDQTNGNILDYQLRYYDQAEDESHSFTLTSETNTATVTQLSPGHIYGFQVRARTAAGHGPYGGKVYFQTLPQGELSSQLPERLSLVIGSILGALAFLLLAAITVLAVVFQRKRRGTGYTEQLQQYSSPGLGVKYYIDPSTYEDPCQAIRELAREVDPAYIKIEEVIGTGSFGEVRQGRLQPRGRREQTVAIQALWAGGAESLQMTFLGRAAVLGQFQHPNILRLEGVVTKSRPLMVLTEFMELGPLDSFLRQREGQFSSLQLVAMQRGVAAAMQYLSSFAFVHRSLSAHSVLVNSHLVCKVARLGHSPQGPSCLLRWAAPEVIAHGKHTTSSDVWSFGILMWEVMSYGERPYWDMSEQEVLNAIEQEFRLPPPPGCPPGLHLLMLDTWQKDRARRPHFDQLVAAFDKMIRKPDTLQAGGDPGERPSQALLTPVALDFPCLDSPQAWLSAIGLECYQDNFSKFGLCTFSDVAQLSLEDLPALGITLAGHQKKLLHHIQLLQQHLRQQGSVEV

[5] = target: Tyrosine-protein kinase Fes/Fps (Homo sapiens) (UniProt P07332); assay: Selectivity interaction (Kinase panel (DSF assay)) EUB0001558a FES
[6] = tested on: Tyrosine-protein kinase ABL1 (Homo sapiens), P00519 [F317I]; conditions: at 10 µM
[7] = target: Serine/threonine-protein kinase ATR (Homo sapiens) (UniProt Q13535); assay: Selectivity interaction (ActivX KiNativ screen (kinase selectivity in THP-1 cell lysates)) EUB0000639a ATR; type: subcellular; conditions: lysate
[8] = target: Cyclin-dependent kinase 7 (Homo sapiens, UniProt P50613); assay: Selectivity interaction (ActivX KiNativ screen (kinase selectivity in THP-1 cell lysates)) EUB0000639a CDK7; type: subcellular; conditions: lysate
[9] = target: Tyrosine-protein kinase HCK (Homo sapiens) (UniProt P08631); assay: Selectivity interaction (ActivX KiNativ screen (kinase selectivity in THP-1 cell lysates)) EUB0000639a HCK; type: subcellular; conditions: lysate
[10] = target: Ribosomal protein S6 kinase alpha-3 (Homo sapiens, UniProt P51812); assay: Selectivity interaction (KinomeScan (DiscoverX)) EUB0000666a RPS6KA3; conditions: at 10 µM
[11] = target: Tyrosine-protein kinase receptor UFO (Homo sapiens) (UniProt P30530); assay: Selectivity interaction (Rxn Biology Kinase assay) EUB0001632a AXL; conditions: at 10 µM
[12] = target: Cyclin-dependent kinase 1/cyclin B (Homo sapiens) (UniProt P06493+P14635+Q8WWL7+O95067); assay: Selectivity interaction (Kinase panel (Z-LYTE Assay)) EUB0001632a CDK1; type: protein-complex assay; conditions: at 10 µM

Sequence of Cyclin-dependent kinase 7 (P50613 whole entry): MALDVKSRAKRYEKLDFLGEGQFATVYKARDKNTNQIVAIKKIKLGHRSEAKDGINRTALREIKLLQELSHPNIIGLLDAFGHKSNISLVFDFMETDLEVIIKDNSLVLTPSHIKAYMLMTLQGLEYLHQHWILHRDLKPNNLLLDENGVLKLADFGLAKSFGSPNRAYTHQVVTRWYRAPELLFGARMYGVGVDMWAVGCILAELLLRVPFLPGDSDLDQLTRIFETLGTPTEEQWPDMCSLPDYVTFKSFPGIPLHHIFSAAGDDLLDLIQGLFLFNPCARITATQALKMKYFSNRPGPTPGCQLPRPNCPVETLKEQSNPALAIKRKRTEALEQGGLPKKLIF
Sequence of Serine/threonine-protein kinase ATR (Homo sapiens) (Q13535 whole entry, looked up): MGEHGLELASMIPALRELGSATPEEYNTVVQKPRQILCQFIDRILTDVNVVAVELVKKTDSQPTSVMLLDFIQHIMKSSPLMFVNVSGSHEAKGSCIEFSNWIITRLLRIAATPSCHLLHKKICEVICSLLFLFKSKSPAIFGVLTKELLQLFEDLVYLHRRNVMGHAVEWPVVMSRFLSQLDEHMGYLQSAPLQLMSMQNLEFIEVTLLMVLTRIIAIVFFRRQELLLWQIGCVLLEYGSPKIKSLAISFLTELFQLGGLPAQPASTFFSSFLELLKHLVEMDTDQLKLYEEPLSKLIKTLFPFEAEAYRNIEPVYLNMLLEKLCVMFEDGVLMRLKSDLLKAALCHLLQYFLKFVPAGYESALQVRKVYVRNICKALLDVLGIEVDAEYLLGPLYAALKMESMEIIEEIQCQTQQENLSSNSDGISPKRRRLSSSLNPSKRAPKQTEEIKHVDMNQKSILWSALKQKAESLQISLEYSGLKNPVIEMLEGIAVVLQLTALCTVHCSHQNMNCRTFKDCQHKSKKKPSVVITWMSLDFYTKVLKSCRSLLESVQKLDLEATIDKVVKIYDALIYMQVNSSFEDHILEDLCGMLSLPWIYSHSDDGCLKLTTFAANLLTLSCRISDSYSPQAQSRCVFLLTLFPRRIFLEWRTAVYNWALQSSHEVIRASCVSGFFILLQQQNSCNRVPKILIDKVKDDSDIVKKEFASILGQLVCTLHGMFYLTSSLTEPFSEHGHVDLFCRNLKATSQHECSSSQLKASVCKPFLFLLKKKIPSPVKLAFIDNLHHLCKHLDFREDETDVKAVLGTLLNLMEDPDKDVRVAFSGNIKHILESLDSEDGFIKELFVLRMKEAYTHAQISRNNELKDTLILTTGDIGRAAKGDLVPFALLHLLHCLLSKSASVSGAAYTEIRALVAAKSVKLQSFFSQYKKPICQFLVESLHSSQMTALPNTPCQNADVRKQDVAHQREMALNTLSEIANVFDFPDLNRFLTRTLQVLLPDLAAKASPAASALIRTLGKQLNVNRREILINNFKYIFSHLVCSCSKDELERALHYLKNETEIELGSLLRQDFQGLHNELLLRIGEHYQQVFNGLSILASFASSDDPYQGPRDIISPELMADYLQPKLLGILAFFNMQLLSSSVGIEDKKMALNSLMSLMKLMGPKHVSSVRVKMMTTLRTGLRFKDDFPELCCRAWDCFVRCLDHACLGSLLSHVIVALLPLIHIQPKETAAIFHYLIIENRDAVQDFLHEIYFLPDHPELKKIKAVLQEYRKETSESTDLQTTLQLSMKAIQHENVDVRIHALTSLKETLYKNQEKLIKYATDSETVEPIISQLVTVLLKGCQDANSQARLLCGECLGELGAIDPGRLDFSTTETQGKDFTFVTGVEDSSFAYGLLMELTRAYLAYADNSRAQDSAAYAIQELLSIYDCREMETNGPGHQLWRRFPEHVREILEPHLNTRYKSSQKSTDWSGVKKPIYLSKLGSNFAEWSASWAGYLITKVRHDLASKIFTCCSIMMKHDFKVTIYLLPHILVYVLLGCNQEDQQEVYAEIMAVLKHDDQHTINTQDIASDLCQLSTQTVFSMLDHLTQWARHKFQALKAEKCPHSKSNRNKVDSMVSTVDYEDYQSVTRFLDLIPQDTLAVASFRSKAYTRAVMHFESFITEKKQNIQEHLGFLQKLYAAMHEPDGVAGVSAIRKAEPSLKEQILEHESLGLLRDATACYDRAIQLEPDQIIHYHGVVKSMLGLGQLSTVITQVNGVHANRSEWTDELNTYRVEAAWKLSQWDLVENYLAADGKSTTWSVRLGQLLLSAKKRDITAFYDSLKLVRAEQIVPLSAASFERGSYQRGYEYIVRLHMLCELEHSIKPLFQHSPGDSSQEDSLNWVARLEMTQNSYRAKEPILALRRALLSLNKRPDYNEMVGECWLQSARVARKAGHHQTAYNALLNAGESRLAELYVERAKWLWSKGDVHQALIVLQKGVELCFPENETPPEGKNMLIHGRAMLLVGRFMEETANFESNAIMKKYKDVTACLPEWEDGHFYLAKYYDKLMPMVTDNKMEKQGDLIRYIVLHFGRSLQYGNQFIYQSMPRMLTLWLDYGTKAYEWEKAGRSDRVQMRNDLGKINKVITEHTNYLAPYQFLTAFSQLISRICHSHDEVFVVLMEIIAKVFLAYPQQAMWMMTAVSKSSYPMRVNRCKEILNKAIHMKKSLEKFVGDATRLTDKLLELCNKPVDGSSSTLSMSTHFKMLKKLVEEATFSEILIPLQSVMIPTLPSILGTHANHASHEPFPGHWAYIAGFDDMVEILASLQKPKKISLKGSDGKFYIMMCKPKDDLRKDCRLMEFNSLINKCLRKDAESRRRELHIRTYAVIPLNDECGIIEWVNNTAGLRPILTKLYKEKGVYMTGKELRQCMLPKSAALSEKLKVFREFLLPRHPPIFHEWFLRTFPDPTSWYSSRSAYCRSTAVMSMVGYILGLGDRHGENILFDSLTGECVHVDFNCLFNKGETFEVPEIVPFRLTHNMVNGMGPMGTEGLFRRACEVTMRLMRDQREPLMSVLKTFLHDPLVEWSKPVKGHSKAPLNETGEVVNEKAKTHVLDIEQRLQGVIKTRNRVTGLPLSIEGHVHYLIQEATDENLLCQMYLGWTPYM
Sequence of Tyrosine-protein kinase HCK (Homo sapiens) (P08631 2-526 limits assumed): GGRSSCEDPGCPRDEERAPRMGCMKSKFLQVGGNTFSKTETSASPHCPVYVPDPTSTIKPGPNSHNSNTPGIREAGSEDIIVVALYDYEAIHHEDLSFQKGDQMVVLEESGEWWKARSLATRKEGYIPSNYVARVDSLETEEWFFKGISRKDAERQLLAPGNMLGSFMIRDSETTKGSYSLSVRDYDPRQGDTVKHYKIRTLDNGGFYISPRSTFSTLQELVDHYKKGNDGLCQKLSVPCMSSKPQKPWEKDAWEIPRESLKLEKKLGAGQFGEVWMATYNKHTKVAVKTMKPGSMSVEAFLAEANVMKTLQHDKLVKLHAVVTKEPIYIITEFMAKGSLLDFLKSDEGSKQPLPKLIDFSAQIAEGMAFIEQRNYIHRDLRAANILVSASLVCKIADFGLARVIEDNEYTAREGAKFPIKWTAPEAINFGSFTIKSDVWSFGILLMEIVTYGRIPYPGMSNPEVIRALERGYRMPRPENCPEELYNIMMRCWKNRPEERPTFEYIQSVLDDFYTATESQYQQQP
Sequence of Dual specificity protein kinase CLK2 (P49760 whole entry, looked up): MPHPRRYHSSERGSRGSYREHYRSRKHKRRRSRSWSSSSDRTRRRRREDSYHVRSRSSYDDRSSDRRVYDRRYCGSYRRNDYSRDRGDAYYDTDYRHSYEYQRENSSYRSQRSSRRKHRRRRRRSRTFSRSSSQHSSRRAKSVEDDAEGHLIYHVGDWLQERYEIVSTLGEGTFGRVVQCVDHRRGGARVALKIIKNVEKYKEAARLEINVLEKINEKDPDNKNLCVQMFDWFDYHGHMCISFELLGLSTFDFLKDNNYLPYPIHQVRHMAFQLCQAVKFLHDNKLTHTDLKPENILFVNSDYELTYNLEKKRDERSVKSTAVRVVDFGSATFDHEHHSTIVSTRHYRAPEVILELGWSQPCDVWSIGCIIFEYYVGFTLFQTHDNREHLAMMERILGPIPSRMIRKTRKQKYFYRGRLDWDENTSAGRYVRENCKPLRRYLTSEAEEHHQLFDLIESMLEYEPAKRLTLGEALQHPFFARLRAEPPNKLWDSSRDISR
Sequence of Tyrosine-protein kinase Fes/Fps (Homo sapiens) (P07332 whole entry): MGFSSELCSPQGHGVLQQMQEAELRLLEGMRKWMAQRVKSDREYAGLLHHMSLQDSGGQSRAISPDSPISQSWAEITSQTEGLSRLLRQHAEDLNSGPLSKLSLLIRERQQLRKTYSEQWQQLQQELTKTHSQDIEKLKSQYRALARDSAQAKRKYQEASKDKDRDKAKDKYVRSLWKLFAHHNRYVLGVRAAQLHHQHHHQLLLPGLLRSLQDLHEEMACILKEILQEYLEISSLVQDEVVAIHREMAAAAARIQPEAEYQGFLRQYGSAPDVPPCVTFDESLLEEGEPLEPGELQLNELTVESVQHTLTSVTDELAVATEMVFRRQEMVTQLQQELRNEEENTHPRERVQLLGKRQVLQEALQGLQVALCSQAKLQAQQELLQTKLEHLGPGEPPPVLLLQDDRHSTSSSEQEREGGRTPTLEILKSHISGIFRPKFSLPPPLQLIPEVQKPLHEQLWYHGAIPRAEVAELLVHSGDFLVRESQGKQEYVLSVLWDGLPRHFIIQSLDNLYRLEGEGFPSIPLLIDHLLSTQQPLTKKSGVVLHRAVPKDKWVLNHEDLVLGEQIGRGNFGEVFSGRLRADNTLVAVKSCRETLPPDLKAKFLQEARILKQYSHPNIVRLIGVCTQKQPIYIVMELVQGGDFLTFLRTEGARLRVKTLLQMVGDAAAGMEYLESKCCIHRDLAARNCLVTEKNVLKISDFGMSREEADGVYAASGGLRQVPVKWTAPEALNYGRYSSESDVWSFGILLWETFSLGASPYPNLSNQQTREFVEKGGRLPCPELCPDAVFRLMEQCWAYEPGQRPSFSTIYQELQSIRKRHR

SMILES: Nc1cnc(N2CCc3cc(S(=O)(=O)Nc4c(F)cc(Cl)cc4F)cc(N4CCCC4=O)c32)nc1 [TP-020n]
- % of control (SRSF protein kinase 1): 81%

SMILES: O[C@H]1CC[C@H](Nc2ncc3nc(Nc4c(F)cc(F)cc4F)n([C@H]4CCOC4)c3n2)CC1
- % of control [1]: 88%

SMILES: CNC(=O)Nc1ccc(-c2nc(N3CC4CCC(C3)O4)c3cnn(C4CCC5(CC4)OCCO5)c3n2)cc1
- % of control [2]: 84%
- % of inhibition [3]: 0%
- % of control [4]: 83%

SMILES: CC(C)(O)[C@H](F)CN1Cc2cc(NC(=O)c3cnn4cccnc34)c(N3CCOCC3)cc2C1=O
- dTM [5]: 0.3 K

SMILES: Cc1cc([C@@H](C)Nc2ccccc2C(=O)O)c2nc(N3CCOCC3)cc(=O)n2c1 [AZD-6482]
- % of control [6]: 100%

- % of inhibition ([7]; at 0.01 µM): 14.9%
- % of inhibition ([7]; at 0.04 µM): 0%
- % of inhibition ([7]; at 0.2 µM): -4.2%
- % of inhibition ([7]; at 1 µM): 14.1%
- % of inhibition ([7]; at 5 µM): 18.6%
- % of inhibition ([8]; at 0.01 µM): -17%
- % of inhibition ([8]; at 0.04 µM): -0.9%
- % of inhibition ([8]; at 0.2 µM): -1.1%
- % of inhibition ([8]; at 1 µM): 20.9%
- % of inhibition ([8]; at 5 µM): 60%
- % of inhibition ([9]; at 0.01 µM): -5.9%
- % of inhibition ([9]; at 0.04 µM): -8.6%
- % of inhibition ([9]; at 0.2 µM): -9.9%
- % of inhibition ([9]; at 1 µM): -4.8%
- % of inhibition ([9]; at 5 µM): -3.1%
SMILES: CC[C@@H]1[C@H](F)C(=O)N[C@@H]1COc1nccc2cc(C(N)=O)c(OC)cc12 [ZIMLOVISERTIB]

SMILES: O=C(NOC[C@H](O)CO)c1ccc(F)c(F)c1Nc1ccc(I)cc1F
- % of control [10]: 100%

- % of inhibition [11]: 4.15%
- % of control [12]: 3.94%
SMILES: Cn1cc(-n2cnc3c(NCc4nc5cc(Cl)c(Cl)cc5[nH]4)nc(N4CCOCC4)nc32)cn1

Reference: ChEMBL document CHEMBL5465560, “Selectivity Literature for EUbOPEN Chemogenomic Library” (2024)
